Assay results published in patent US20110071197A1, “BIS-ARYL COMPOUNDS FOR USE AS MEDICAMENTS” (priority 2008, published 2011).

The compounds below were run against T1, Recombinant human LTC4 synthase (Homo sapiens, UniProt Q16873) (assay: LTC4 synthase in vitro assay (HTRF detection of LTC4)). Conditions: total concentration of title compound in the assay 10 μM; HTRF method.
T1 construct: made in house; host or cells: Pichia pastoris
T1 sequence (Q16873 1-150): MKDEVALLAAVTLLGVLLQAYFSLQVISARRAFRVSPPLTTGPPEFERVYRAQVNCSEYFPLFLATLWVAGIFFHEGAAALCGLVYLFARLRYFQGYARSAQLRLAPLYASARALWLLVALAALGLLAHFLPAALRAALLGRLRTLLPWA
Assay type: biochemical
Procedure: Alternatively HTRF detection of LTC4 can be used:
In the assay, LTC4 synthase catalyses the reaction where the substrate LTA4 is converted to LTC4. Recombinant human LTC4 synthase is expressed in Piccia pastoralis and the purified enzyme is dissolved in 25 mM Tris-buffer pH 7.8 supplemented with 0.1 mM glutathione (GSH) and stored at −80° C. The assay is performed in phosphate buffered saline (PBS) pH 7.4 and 5 mM GSH in 384-well plates.
The following is added chronologically to each well: • 1. 48 μl LTC4 synthase in PBS with 5 mM GSH. The total protein concentration in this solution is 0.5 μg/ml. • 2. […] Incubation of the plate at room temperature for 10 minutes. • 4. 1 μl LTA4 (final conc. 2.5 μM). • 5. Incubation of the plate at room temperature for 5 minutes. • 6. 10 μl of the incubation mixture is analysed using homogeneous time resolved fluorescent (HTRF) detection.

Row | SMILES | inhibition at 10 µM [%] | % inh. [%]
1 | CCCCc1ccc(S(=O)(=O)N(C)c2ccc(Oc3ccc(NC(=O)c4ccc(C)cc4)c(C(=O)O)c3)cc2)cc1 [11:5, 5-{4-[(4-butyl-benzenesulfonyl)-methylamino]phenoxy}-2-(4-methylbenzoylamino)benzoic acid] | 99 | 
2 | CCCCc1ccc(S(=O)(=O)N(C)c2ccc(Oc3ccc(NC(=O)c4ccc(OC(C)C)cc4)c(C(=O)O)c3)cc2)cc1 [11:6, 5-{4-[(4-butylbenzene-sulfonyl)-methylamino]phenoxy}-2-(4-isopropoxybenzoylamino)-benzoic acid] | 96 | 
3 | CCCCc1ccc(S(=O)(=O)N(C)c2ccc(Oc3ccc(NC(=O)c4ccc(Cl)cc4Cl)c(C(=O)O)c3)cc2)cc1 [11:7, 5-{4-[(4-butylbenzenesulfonyl)-methylamino]phenoxy}-2-(2,4-dichlorobenzoylamino)benzoic acid] | 100 | 
4 | CCCCc1ccc(C(=O)Nc2ccc(Oc3ccc(NS(=O)(=O)c4ccc(S(C)(=O)=O)cc4)cc3)cc2C(=O)O)cc1 [11:8, 2-(4-butylbenzoylamino)-5-[4-(4-methanesulfonylbenzene-sulfonylamino)phenoxy]benzoic acid] | 98 | 
5 | CCCCOc1ccc(S(=O)(=O)Nc2ccc(Oc3ccc(N(C)C(=O)c4ccccc4)c(C(=O)O)c3)cc2)cc1 [11:9, 2-(benzoylmethylamino)-5-[4-(4-butoxybenzenesulfonylamino)-phenoxy]benzoic acid] | 89 | 
6 | CCCCOc1ccc(S(=O)(=O)Nc2ccc(Oc3ccc(N(C)C(=O)c4cccc(Cl)c4Cl)c(C(=O)O)c3)cc2)cc1 [11:10, 5-[4-(4-butoxybenzenesulfonyl-amino)phenoxy]-2-[(2,3-di-chlorobenzoyl)methylamino]-benzoic acid] | 95 | 
7 | Cc1c(F)cccc1S(=O)(=O)Nc1ccc(Oc2ccc(N(C)C(=O)c3ccc(OC(C)C)cc3)c(C(=O)O)c2)cc1 [11:11] |  | 72
8 | COc1ccc(S(=O)(=O)N(C)c2ccc(Oc3ccc(NC(=O)c4ccc(Cl)cc4)c(C(=O)O)c3)cc2)cc1 [11:13, 2-(4-chlorobenzoylamino)-5-{4-[(4-methoxybenzenesulfonyl)-methylamino]phenoxy}benzoic acid] | 99 | 
9 | COc1ccc(S(=O)(=O)N(C)c2ccc(Oc3ccc(NC(=O)c4cccc(Cl)c4)c(C(=O)O)c3)cc2)cc1 [11:14, 2-(3-Chloro-benzoylamino)-5-{4-[(4-methoxy-benzenesulfonyl)-methyl-amino]-phenoxy}-benzoic acid] | 100 | 
10 | COc1ccc(S(=O)(=O)N(C)c2ccc(Oc3ccc(NC(=O)c4cc(Cl)ccc4Cl)c(C(=O)O)c3)cc2)cc1 [11:15, 2-(2,5-Dichloro-benzoylamino)-5-{4-[(4-methoxy-benzenesulfonyl)-methyl-amino]-phenoxy}-benzoic acid] | 99 | 
11 | COc1ccc(S(=O)(=O)N(C)c2ccc(Oc3ccc(NC(=O)c4c(F)cccc4F)c(C(=O)O)c3)cc2)cc1 [11:16, 2-(2,6-Difluoro-benzoylamino)-5-{4-[(4-methoxy-benzenesulfonyl)-methyl-amino]-phenoxy}-benzoic acid] | 94 | 
12 | COc1ccc(S(=O)(=O)N(C)c2ccc(Oc3ccc(NC(=O)c4ccc(Cl)cc4OC)c(C(=O)O)c3)cc2)cc1 [11:17, 2-(4-Chloro-2-methoxy-benzoylamino)-5-{4-[(4-methoxy-benzenesulfonyl)-methyl-amino]-phenoxy}-benzoic acid] | 97 | 
13 | COc1ccc(S(=O)(=O)N(C)c2ccc(Oc3ccc(NC(=O)c4ccccc4C(F)(F)F)c(C(=O)O)c3)cc2)cc1 [11:18, 5-{4-[(4-Methoxy-benzenesulfonyl)-methyl-amino]-phenoxy}-2-(2-trifluoromethyl-benzoylamino)-benzoic acid] | 96 | 
14 | COc1ccc(S(=O)(=O)N(C)c2ccc(Oc3ccc(NC(=O)c4ccccc4OC(F)(F)F)c(C(=O)O)c3)cc2)cc1 [11:19, 5-{4-[(4-Methoxy-benzenesulfonyl)-methyl-amino]-phenoxy}-2-(2-trifluoromethoxy-benzoylamino)-benzoic acid] | 97 | 
15 | COc1ccc(S(=O)(=O)N(C)c2ccc(Oc3ccc(NC(=O)c4cc(Cl)cnc4Cl)c(C(=O)O)c3)cc2)cc1 [11:21, 2-[(2,5-Dichloropyridine-3-carbonyl)amino]-5-{4-[(4-methoxybenzenesulfonyl)-methylamino]phenoxy}benzoic acid] | 96 | 
16 | COc1ccc(S(=O)(=O)N(C)c2ccc(Oc3ccc(NC(=O)c4ccccc4Cl)c(C(=O)O)c3)cc2)cc1 [11:22, 2-(2-Chloro-benzoylamino)-5-{4-[(4-methoxybenzenesulfonyl)-methylamino]phenoxy}benzoic acid] | 95 | 
17 | CCCCc1ccc(C(=O)Nc2ccc(Oc3ccc(Nc4ccc(F)cc4)cc3)cc2C(=O)O)cc1 [12:2, 5-(4-(4-fluorophenylamino)-phenoxy)-2-(4-butylbenz-amido)benzoic acid] |  | 94
18 | CCCCc1ccc(C(=O)Nc2ccc(Oc3ccc(N(C(=O)c4ccc(CCCC)cc4)c4ccc(F)cc4)cc3)cc2C(=O)O)cc1 [12:3, 5-(4-((N-4-fluorophenyl)4-butylbenzamido)phenoxy)-2-(4-butylbenzamido)benzoic acid] | 83 | 
19 | O=C(Nc1ccc([S+]([O-])c2ccc(NC(=O)c3ccc(C(F)(F)F)cc3)c(C(=O)O)c2)cc1C(=O)O)c1ccc(C(F)(F)F)cc1 [15:3, 2-(4-(trifluoromethyl)benz-amido)-5-((4-(4-(trifluoromethyl)benzamido)-3-carboxy-phenyl)sulfinyl)benzoic acid] |  | 99
20 | O=C(Nc1ccc(S(=O)(=O)c2ccc(NC(=O)c3ccc(C(F)(F)F)cc3)c(C(=O)O)c2)cc1C(=O)O)c1ccc(C(F)(F)F)cc1 [16:2, 2-(4-(trifluoromethyl)benz-amido)-5-((4-(4-(trifluoro-methyl)benzamido)-3-carboxyphenyl)sulfonyl)-benzoic acid] |  | 97

Continued, in another order:

Row | inhibition at 10 µM [%] | SMILES | % inh. [%]
21 | 87 | O=C(O)c1cc(Oc2ccc(N(c3ccc(C(=O)C4CC4)cc3)c3ccc(C(=O)C4CC4)cc3)cc2)ccc1Nc1ccc(C(=O)C2CC2)cc1 [12:4, 5-{4-[bis-(4-cyclopropane-carbonyl-phenyl)-amino]-phenoxy}-2-(4-cycloprop-anecarbonyl-phenylamino)-benzoic acid] | 
22 | 96 | O=C(O)c1cc(Oc2ccc(Nc3ccc(Cl)cc3)cc2)ccc1Nc1ccc(Cl)cc1 [12:5, 2-(4-chloro-phenylamino)-5-[4-(4-chloro-phenylamino)-phenoxy]-benzoic acid] | 
23 | 98 | CCCCc1ccc(C(=O)Nc2ccc(Sc3ccc(NC(=O)c4ccc(CCCC)cc4)c(C(=O)O)c3)cc2C(=O)O)cc1 [13:1, 2-(4-butylbenzamido)-5-((4-(4-butylbenzamido)-3-carboxyphenyl)-sulfanyl)benzoic acid] | 
24 | 100 | O=C(Nc1ccc(Sc2ccc(NC(=O)c3cccc(Cl)c3)c(C(=O)O)c2)cc1C(=O)O)c1cccc(Cl)c1 [13:2, 2-(3-chlorobenzamido)-5-((4-(3-chlorobenzamido)-3-carboxyphenyl)sulfanyl)benzoic acid] | 
25 | 99 | O=C(Nc1ccc(Sc2ccc(NC(=O)c3ccc(C(F)(F)F)cc3)c(C(=O)O)c2)cc1C(=O)O)c1ccc(C(F)(F)F)cc1 [13:3, 2-(4-(trifluoromethyl)-benzamido)-5-((4-(4-(trifluoromethyl)benzamido)-3-carboxyphenyl)sulfanyl)benzoic acid] | 
26 | 98 | CCCCc1ccc(S(=O)(=O)Nc2ccc(Sc3ccc(NS(=O)(=O)c4ccc(CCCC)cc4)c(C(=O)O)c3)cc2)cc1 [14:3, 2-(4-butyl-benzenesulfonyl-amino)-5-[4-(4-butyl-benzen-sulfonylamino)phenyl-sulfanyl]benzoic acid] | 
27 | 100 | O=C(O)c1cc(Sc2ccc(NS(=O)(=O)c3ccc(Cl)cc3)cc2)ccc1NS(=O)(=O)c1ccc(Cl)cc1 [14:4, 2-(4-chloro-benzenesulfonyl-amino)-5-[4-(4-chloro-benzenesulfonylamino)-phenylsulfanyl]-benzoic acid] | 
28 | 97 | O=C(Nc1ccc(Cl)cc1)Nc1ccc(Sc2ccc(NC(=O)Nc3ccc(Cl)cc3)c(C(=O)O)c2)cc1 [14:5, 2-[3-(4-chlorophenyl)-ureido]-5-{4-[3-(4-chlorophenyl)-ureido]phenylsulfanyl}-benzoic acid] | 
29 | 99 | CCCCc1ccc(C(=O)Nc2ccc([S+]([O-])c3ccc(NC(=O)c4ccc(CCCC)cc4)c(C(=O)O)c3)cc2C(=O)O)cc1 [15:1, 5-(4-(4-butylbenzamido)-3-carboxyphenylsulfinyl)-2-(4-butylbenzamido)benzoic acid] | 
30 | 100 | O=C(Nc1ccc([S+]([O-])c2ccc(NC(=O)c3cccc(Cl)c3)c(C(=O)O)c2)cc1C(=O)O)c1cccc(Cl)c1 [15:2, 2-(3-chlorobenzamido)-5-(4-(3-chlorobenzamido)-3-carboxyphenylsulfinyl)benzoic acid] | 
31 | 98 | O=C(Nc1ccc(S(=O)(=O)c2ccc(NC(=O)c3cccc(Cl)c3)c(C(=O)O)c2)cc1C(=O)O)c1cccc(Cl)c1 [16:1, 2-(3-chlorobenzamido)-5-(4-(3-chlorobenzamido)-3-carboxyphenylsulfonyl)-benzoic acid] | 
